From patent US20160122320A1, “USEFUL COMBINATIONS OF MONOBACTAM ANTIBIOTICS WITH BETA-LACTAMASE INHIBITORS” (Basilea Pharmaceutica AG, priority 2005, published 2016)
Several values for one entry are separate records, joined by “and”; a condition that tells them apart may be missing. Equal entries are not always repeated. Structures can show the parent of a compound that is named as a salt.

Assays:
Experiment in all cases: MIC, NCCLS broth microdilution
Assay type in all cases: cell-based
Details in all cases: for MIC of antibiotic at fixed inhibitor concentration (4 mg/L): MIC of antibiotic compound 1 with the labelled bridged monobactam of formula II and clavulanate, 4 mg/L each; for MIC of antibiotic: antibiotic alone, no inhibitor
[1] = test system: Klebsiella pneumoniae CF104
[2] = test system: Stenotrophomonas malthophilia 1AC736
Acinetobacter sp. J2 = test system: Acinetobacter sp. J2
[3] = test system: Pseudomonas aeruginosa 1973E
Method in brief: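 Broth microdilution per NCCLS M7-A5, final DMSO ≤1%, overnight incubation at 30° C. or 37° C. MIC is the lowest concentration completely inhibiting visible growth, read by eye. In combination tests, formula I compounds were serially diluted with formula II and III-XIII partners held at 4 μg/mL each.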

Serratia marcescens S6 = test system: Serratia marcescens S6
[4] = test system: Pseudomonas aeruginosa MK1184
Enterobacter cloacae P99 = test system: Enterobacter cloacae P99
[5] = Stenotrophomonas malthophilia 1AC736
[6] = Stenotrophomonas maltophilia 1AC736
[7] = Stenotrophomonas maltophilia 1AC736, with 102 and clavulanate
[8] = Acinetobacter baumannii J2, with 102 and clavulanate

Row | SMILES | MIC of antibiotic at fixed inhibitor concentration (4 mg/L) [1] [µg/mL] | MIC of antibiotic at fixed inhibitor concentration (4 mg/L) [2, 5] [µg/mL] | MIC of antibiotic at fixed inhibitor concentration (4 mg/L) (Acinetobacter sp. J2; Acinetobacter sp. J2) [µg/mL] | MIC of antibiotic at fixed inhibitor concentration (4 mg/L) [3] [µg/mL] | MIC of antibiotic at fixed inhibitor concentration (4 mg/L) (Serratia marcescens S6) [µg/mL] | MIC of antibiotic at fixed inhibitor concentration (4 mg/L) [4] [µg/mL] | MIC of antibiotic at fixed inhibitor concentration (4 mg/L) (Enterobacter cloacae P99) [µg/mL] | MIC of antibiotic [1] [µg/mL] | MIC of antibiotic [2, 6] [µg/mL] | MIC of antibiotic (Acinetobacter sp. J2; Acinetobacter baumannii J2) [µg/mL] | MIC of antibiotic [3] [µg/mL] | MIC of antibiotic (Serratia marcescens S6) | MIC of antibiotic [4] [µg/mL] | MIC of antibiotic (Enterobacter cloacae P99) [µg/mL] | also measured
1 | NC(=O)c1cc[n+](CC(=O)N2CC[C@@H]3[C@H]2C(=O)N3S(=O)(=O)[O-])cc1C(N)=O [Compound 110, (1S,5R)-2-[2-(3,4-dicarbamoylpyridinium)acetyl]-7-oxo-2,6-diazabicyclo[3.2.0]heptane-6-sulfonate, inner salt] | 0.125 | 0.125 | 2 | 4 | 0.25 | 32 | >32 |  |  |  |  |  |  |  | 
2 | CO/N=C(\C(=O)N[C@@H]1C(=O)N2C(C(=O)[O-])=C(C[N+]3(C)CCCC3)CS[C@H]12)c1csc(N)n1 [Cefepime] |  |  |  |  |  |  |  | 4 | 4 | 32 | 4 | 0.13 µg/mL and 0.125 µg/mL | 32 | 2 | MIC of antibiotic [2, 5]: 4 µg/mL; MIC of antibiotic (Acinetobacter sp. J2; Acinetobacter sp. J2): 32 µg/mL
3 | NC(=O)c1ccc[n+](CC(=O)N2CC[C@@H]3[C@H]2C(=O)N3S(=O)(=O)[O-])c1 [Compound 102, (1S,5R)-2-[2-β-carbamoylpyridinium)acetyl]-7-oxo-2,6-diazabicyclo[3.2.0]heptane-6-sulfonate, inner salt] | 1 | 0.125 | 4 | 2 | 0.25 | 4 | 4 |  |  |  |  |  |  |  | 
4 | Nc1ccc(NC(=O)N2CC[C@@H]3[C@H]2C(=O)N3S(=O)(=O)[O-])cc1.[Na+] [Compound 327, Sodium(1S,5R)-2-[N-(4-aminophenyl)carbamoyl]-7-oxo-2,6-diazabicyclo[3.2.0]heptane-6-sulfonate] | 2 | 0.125 | 2 | 2 | 0.25 | >32 | 32 |  |  |  |  |  |  |  | 
5 | NC(=O)c1c[n+](CC(=O)N2CC[C@@H]3[C@H]2C(=O)N3S(=O)(=O)[O-])ccc1N [Compound 126, (1S,5R)-2-[2-(4-amino-3-carbamoylpyridinium)acetyl]-7-oxo-2,6-diazabicyclo[3.2.0]heptane-6-sulfonate, inner salt] | >32 | 0.125 | 2 | 8 | 0.125 | 16 | 32 |  |  |  |  |  |  |  | 
6 | CC(=O)Nc1cccc(NC(=O)N2CC[C@@H]3[C@H]2C(=O)N3S(=O)(=O)[O-])c1.[Na+] [Compound 307, Sodium(1S,5R)-2-{N-[3-(acetylamino)phenyl]carbamoyl}-7-oxo-2,6-diazabicyclo[3.2.0]heptane-6-sulfonate] | 2 | 0.125 | >32 | 8 | 0.25 | >32 | 32 |  |  |  |  |  |  |  | 
7 | CC1C(NC(=O)C(=NOCc2cc(=O)c(O)cn2O)c2csc(NC=O)n2)C(=O)N1S(=O)(=O)O (stereo not drawn) [Compound 28] |  |  |  |  |  |  |  | >32 | 8 | >32 | >32 | 8 µg/mL | >32 | >32 | MIC of antibiotic at fixed inhibitor concentration of 4 mg/L ([1]; with 102 and clavulanate): 0.5 µg/mL; MIC of antibiotic at fixed inhibitor concentration of 4 mg/L [2, 7]: 1 µg/mL; MIC of antibiotic at fixed inhibitor concentration of 4 mg/L (Acinetobacter sp. J2; [8]): >32 µg/mL; MIC of antibiotic at fixed inhibitor concentration of 4 mg/L ([3]; with 102 and clavulanate): 16 µg/mL; MIC of antibiotic at fixed inhibitor concentration of 4 mg/L (Serratia marcescens S6; with 102 and clavulanate): 1 µg/mL; MIC of antibiotic at fixed inhibitor concentration of 4 mg/L ([4]; with 102 and clavulanate): 32 µg/mL; MIC of antibiotic at fixed inhibitor concentration of 4 mg/L (Enterobacter cloacae P99; with 102 and clavulanate): >32 µg/mL
8 | NC(=O)CNC(=O)c1ccc[n+](CC(=O)N2CC[C@@H]3[C@H]2C(=O)N3S(=O)(=O)[O-])c1 [Compound 108, (1S,5R)-2-(2-{3-[N-(carbamoylmethyl)carbamoyl]pyridinium}acetyl)-7-oxo-2,6-diazabicyclo[3.2.0]heptane-6-sulfonate, inner salt] | 1 | 0.125 | >32 | 4 | 0.25 | >32 | 4 |  |  |  |  |  |  |  | 
9 | NC(=O)OC[C@@H]1[C@H](NC(=O)/C(=N\OCc2cc(=O)c(O)cn2O)c2nsc(N)n2)C(=O)N1OS(=O)(=O)O [Compound 48, ((2S,3S)-3-{(2Z)-2-(5-amino(1,2,4-thiadiazol-3-yl))-3-[(1,5-dihydroxy-4-oxo(2-hydropyridyl))methoxy]-3-azaprop-2-enoylamino}-1-(hydroxysulfonyloxy)-4-oxoazetidin-2-yl)methyl aminooate] |  |  |  |  |  |  |  | >32 | 4 | >32 | 8 | 8 µg/mL | 4 | >32 | MIC of antibiotic at fixed inhibitor concentration of 4 mg/L ([1]; with 102 and clavulanate): 2 µg/mL; MIC of antibiotic at fixed inhibitor concentration of 4 mg/L ([1]; with 324 and clavulanate): 4 µg/mL; MIC of antibiotic at fixed inhibitor concentration of 4 mg/L [2, 7]: 4 µg/mL; MIC of antibiotic at fixed inhibitor concentration of 4 mg/L ([2]; Stenotrophomonas maltophilia 1AC736, with 324 and clavulanate): 2 µg/mL; MIC of antibiotic at fixed inhibitor concentration of 4 mg/L (Acinetobacter sp. J2; [8]): >32 µg/mL; MIC of antibiotic at fixed inhibitor concentration of 4 mg/L (Acinetobacter sp. J2; Acinetobacter baumannii J2, with 324 and clavulanate): >32 µg/mL; MIC of antibiotic at fixed inhibitor concentration of 4 mg/L ([3]; with 102 and clavulanate): 4 µg/mL; MIC of antibiotic at fixed inhibitor concentration of 4 mg/L ([3]; with 324 and clavulanate): 8 µg/mL; MIC of antibiotic at fixed inhibitor concentration of 4 mg/L (Serratia marcescens S6; with 102 and clavulanate): 2 µg/mL; MIC of antibiotic at fixed inhibitor concentration of 4 mg/L (Serratia marcescens S6; with 324 and clavulanate): 2 µg/mL; MIC of antibiotic at fixed inhibitor concentration of 4 mg/L ([4]; with 102 and clavulanate): 2 µg/mL; MIC of antibiotic at fixed inhibitor concentration of 4 mg/L ([4]; with 324 and clavulanate): 2 µg/mL; MIC of antibiotic at fixed inhibitor concentration of 4 mg/L (Enterobacter cloacae P99; with 102 and clavulanate): 32 µg/mL; MIC of antibiotic at fixed inhibitor concentration of 4 mg/L (Enterobacter cloacae P99; with 324 and clavulanate): 16 µg/mL
10 | CN(C)c1ccc(NC(=O)N2CC[C@@H]3[C@H]2C(=O)N3S(=O)(=O)[O-])cc1.[Na+] [Compound 309, Sodium(1S,5R)-2-{N-[4-(dimethylamino)phenyl]carbamoyl}-7-oxo-2,6-diazabicyclo[3.2.0]heptane-6-sulfonate] | 2 | 0.125 | >32 | 4 | 0.5 | >32 | 32 |  |  |  |  |  |  |  | 
